Test system: Wistar rats
Assay: Neointima formation after balloon catheter vessel injury of the carotid artery in rats
Type: in vivo
Protocol: The effects on neointima formation was assessed after inducing vessel injury in rats with a balloon catheter. Neointima formation is an important part in the process of restenosis. Adult mate Wistar rats (250-260 g) were housed under standard conditions and were fed with commercial rat chow and water ad libitum. During the experiment D-myo-inositol-1,2,6-trisphosphate (IP3) was administered via subcutaneously operated osmotic minipumps with a dose level of 1 mg/kg/hr. A control group received saline solution by osmotic minipumps. The animals were anaesthetised with an intraperitoneal injection of ketamine, 100 mg/kg, (MTC Pharmaceuticals, Cambridge, Ontario, Canada) and xylazine, 10 mg/kg (Bayer lnc., Etobicoke, Ontario, Canada). Using a dissecting microscope, the left carotid artery was exposed on the ventral side of the neck via a midline incision. The bifurcation of the carotid artery was located and two ligatures were placed around the external carotid artery, which was then tied off with the distal ligature. After temporarily occluding the internal carotid artery with a vascular clamp, a small incision was made between the two ligatures placed around the external carotid artery to introduce the endothelial denudation device, an inflated […] Fogarty embolectomy catheter (Baxter Healthcare, Buckinghamshire, UK). […]

SMILES | Reduction of neointima formation (vs control, procedure similar to Example 3) | Reduction of neointima formation (vs saline control, 1 mg/kg/hr via subcutaneous osmotic minipumps, 14 days post-operatively)
O=C(Nc1ccccc1)O[C@@H]1[C@@H](OC(=O)Nc2ccccc2)[C@@H](OP(=O)(O)O)[C@@H](OP(=O)(O)O)[C@H](OP(=O)(O)O)[C@H]1OC(=O)Nc1ccccc1 [PP 11-201, D-3,4,5-tri-O-(phenylcarbamoyl) myo-inositol-1,2,6-trisphosphate] | 62% | 
O=P(O)(O)O[C@@H]1[C@H](OP(=O)(O)O)[C@H](O)[C@@H](O)[C@H](O)[C@H]1OP(=O)(O)O [IP3, D-myo-inositol-1,2,6-trisphosphate] |  | 57%
